From patent publication US20250163056A1, “NONMUSCLE MYOSIN II INHIBITORS” (The University of Florida Research Foundation, Inc., priority 2018, published 2025)

How the values were obtained:
Bovine cardiac myosin = Bovine cardiac myosin (Bos taurus (Bovine), UniProt Q9BE39); assay: Cardiac muscle myosin II actin-activated ATPase assay (NADH-coupled); type: biochemical; set-up: key to Ratio CMMII:NMII Ki/EC50: NMII-sel: no Ki value for cardiac myosin II could be determined; the compounds had no detectable inhibitory properties versus the cardiac myosin II; settings: for Ki: 300 nM cardiac myosin, 10 μM actin, 25° C., read-out: CMMII KI; for Ratio CMMII:NMII Ki/EC50: cardiac myosin II Ki over nonmuscle myosin II EC50
Procedure, shortened: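 NADH-coupled (PK/LDH) assay at 25° C: 300 nM bovine cardiac myosin, 10 μM rabbit F-actin, 1 mM ATP, 1 mM PEP, 220 μM NADH, MOPS pH 7.0, 0.5% DMSO. NADH fluorescence was followed for 30 min; Ki values came from 16-point triplicate data (top 50 uM) fitted to a quadratic one-to-one binding model.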

Rabbit skeletal myosin = assay: Skeletal muscle myosin II actin-activated ATPase assay; type: biochemical; settings: 20 nM skeletal muscle myosin II; read-out: SKMMII KI
Procedure, shortened: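 NADH-coupled (PK/LDH) actin-activated ATPase at 25 °C with 20 nM rabbit skeletal myosin II, 10 μM F-actin, 1 mM ATP, 1 mM PEP, 220 μM NADH in MOPS pH 7.0, MgCl2, EGTA, BSA, DTT, 0.5% DMSO. NADH fluorescence followed 30 min; inhibitory constants from 16-point triplicate curves (top 50 uM), quadratic one-to-one fit.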

[1] = Photostability, percentage remaining undegraded under illumination or in the dark; settings: for Photostability 4 hours: percentage remaining undegraded after 4 hours illumination; for Photostability 24 hours: percentage remaining undegraded after 24 hours illumination; for Photostability Dark (24 h): percentage remaining undegraded in the dark

Bovine cardiac myosin, sequence (Q9BE39 whole entry): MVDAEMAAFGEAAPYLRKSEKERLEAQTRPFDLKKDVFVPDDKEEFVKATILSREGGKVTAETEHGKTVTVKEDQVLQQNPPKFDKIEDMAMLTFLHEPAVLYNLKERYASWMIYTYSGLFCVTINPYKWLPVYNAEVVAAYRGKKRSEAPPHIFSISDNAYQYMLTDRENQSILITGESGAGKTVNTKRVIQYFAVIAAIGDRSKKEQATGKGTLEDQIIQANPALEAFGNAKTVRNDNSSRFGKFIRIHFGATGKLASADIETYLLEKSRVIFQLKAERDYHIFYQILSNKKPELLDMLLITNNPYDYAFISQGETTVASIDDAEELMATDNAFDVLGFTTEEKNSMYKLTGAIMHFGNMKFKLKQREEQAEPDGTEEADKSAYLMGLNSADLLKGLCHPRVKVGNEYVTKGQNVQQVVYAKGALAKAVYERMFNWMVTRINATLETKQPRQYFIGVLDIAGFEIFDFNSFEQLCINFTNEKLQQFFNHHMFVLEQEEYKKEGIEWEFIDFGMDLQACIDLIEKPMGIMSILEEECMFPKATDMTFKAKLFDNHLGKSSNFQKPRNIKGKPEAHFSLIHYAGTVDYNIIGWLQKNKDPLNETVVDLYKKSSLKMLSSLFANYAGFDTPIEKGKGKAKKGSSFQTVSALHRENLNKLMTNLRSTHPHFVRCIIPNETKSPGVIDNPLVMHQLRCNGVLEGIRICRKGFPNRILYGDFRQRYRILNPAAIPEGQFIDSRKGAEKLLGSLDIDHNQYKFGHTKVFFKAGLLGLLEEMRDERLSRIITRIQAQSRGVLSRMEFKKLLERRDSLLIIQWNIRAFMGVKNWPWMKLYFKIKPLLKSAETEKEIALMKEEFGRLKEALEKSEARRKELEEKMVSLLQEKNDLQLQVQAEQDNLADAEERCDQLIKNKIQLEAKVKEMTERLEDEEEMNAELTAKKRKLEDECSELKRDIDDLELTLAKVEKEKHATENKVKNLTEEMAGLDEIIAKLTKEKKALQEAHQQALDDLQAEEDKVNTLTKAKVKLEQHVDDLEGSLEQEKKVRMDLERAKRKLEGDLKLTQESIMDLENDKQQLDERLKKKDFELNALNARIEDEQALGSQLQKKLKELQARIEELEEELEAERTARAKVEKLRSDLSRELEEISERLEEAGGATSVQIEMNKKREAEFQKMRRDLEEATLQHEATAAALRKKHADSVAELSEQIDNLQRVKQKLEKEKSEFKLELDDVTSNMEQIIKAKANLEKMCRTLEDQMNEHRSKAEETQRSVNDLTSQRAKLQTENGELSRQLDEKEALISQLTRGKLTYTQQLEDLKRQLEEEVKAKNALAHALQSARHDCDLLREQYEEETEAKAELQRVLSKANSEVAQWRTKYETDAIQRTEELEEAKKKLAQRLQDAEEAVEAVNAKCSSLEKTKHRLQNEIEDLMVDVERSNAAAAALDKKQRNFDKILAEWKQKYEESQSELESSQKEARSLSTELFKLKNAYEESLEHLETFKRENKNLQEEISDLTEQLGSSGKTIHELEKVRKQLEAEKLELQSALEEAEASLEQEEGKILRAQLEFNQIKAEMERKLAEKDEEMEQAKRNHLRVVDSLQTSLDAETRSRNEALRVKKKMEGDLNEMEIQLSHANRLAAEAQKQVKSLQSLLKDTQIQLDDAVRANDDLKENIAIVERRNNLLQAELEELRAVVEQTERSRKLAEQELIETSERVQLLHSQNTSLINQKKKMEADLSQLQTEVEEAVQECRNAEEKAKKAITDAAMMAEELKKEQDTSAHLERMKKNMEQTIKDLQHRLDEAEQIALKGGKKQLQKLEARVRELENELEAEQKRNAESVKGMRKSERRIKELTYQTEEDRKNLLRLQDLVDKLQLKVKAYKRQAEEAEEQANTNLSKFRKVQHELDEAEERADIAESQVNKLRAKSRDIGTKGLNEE
Bovine cardiac myosin, sequence (P85100 whole entry partner): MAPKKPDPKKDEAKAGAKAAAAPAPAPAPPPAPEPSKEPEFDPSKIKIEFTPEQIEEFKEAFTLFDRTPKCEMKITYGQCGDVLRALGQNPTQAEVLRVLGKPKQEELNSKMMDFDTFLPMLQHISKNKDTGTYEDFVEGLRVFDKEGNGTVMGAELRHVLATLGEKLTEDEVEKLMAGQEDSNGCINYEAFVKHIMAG
Bovine cardiac myosin, sequence (Q3SZE5 whole entry partner): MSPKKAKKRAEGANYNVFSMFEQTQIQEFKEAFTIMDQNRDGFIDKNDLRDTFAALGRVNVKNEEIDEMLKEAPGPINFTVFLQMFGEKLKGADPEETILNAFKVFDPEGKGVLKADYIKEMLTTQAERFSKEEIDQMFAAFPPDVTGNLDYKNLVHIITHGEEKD

SMILES	Ki (Bovine cardiac myosin)	Ratio CMMII:NMII Ki/EC50 (Bovine cardiac myosin)	Ki (Rabbit skeletal myosin)	Photostability 4 hours [1]	Photostability 24 hours [1]	Photostability Dark (24 h) [1]
Cc1ccc2c(c1)C(=O)[C@]1(O)CCN(c3ccc4ncccc4c3)C1=N2 [BPN-0027040]	37 µM	30.8	2.6 µM	94.8%	21.4%	95.7%
Cc1ccc2c(c1)C(=O)[C@]1(O)CCN(c3ccc4ccncc4c3)C1=N2 [BPN-0027042]		NMII-sel	10 µM	92.7%	13.8%	>99%
O=C1c2c(sc3c2CCCC3)N=C2N(c3ccccc3)CC[C@@]12O [BPN-0027043]		NMII-sel	15 µM	97.7%	72.3%	>99%
Cc1cc2c(cc1C(F)(F)F)N=C1N(c3ccc(C#N)cc3)CC[C@@]1(O)C2=O [BPN-0027071]		NMII-sel	20 µM	>99%	95.3%	>99%
Cc1cc2c(s1)C(=O)[C@]1(O)CCN(c3ccc(C#N)c(C)c3)C1=N2 [BPN-0027072]	31 µM	3.1	5 µM	>99%	>99%	>99%
Cc1cc2c(s1)C(=O)[C@]1(O)CCN(c3cccc(Br)c3)C1=N2 [BPN-0027074]	77 µM	3.7	16 µM	95.8%	93.4%	94.5%
Cc1cc2c(cc1C(F)(F)F)N=C1N(c3ccc(Cl)cc3)CC[C@@]1(O)C2=O [BPN-0027080]		NMII-sel	4.8 µM	98.1%	88.1%	>99%
Cc1sc2c(c1C)C(=O)[C@]1(O)CCN(c3ccc(I)cc3)C1=N2 [BPN-0027081]	9 µM	8.2	0.29 µM	97.0%	46.3%	96.9%
Cc1cc2c(cc1C(F)(F)F)N=C1N(c3ccc4ccoc4c3)CC[C@@]1(O)C2=O [BPN-0027108]		NMII-sel	10 µM	>99%	97.0%	>99%
Cc1cc2c(cc1C)C(=O)[C@]1(O)CCN(c3ccc(I)cc3)C1=N2 [BPN-0027109]	11 µM	21.2	0.27 µM	82.5%	29.4%	>99%
Cc1nc2cc(N3CC[C@@]4(O)C(=O)c5cc(C)c(C)cc5N=C34)ccc2o1 [BPN-0027118]	5.5 µM	4.6	0.68 µM	68.6%	9.2%	94.4%
Cc1cc2c(cc1C)C(=O)[C@]1(O)CCN(c3ccc4scnc4c3)C1=N2 [BPN-0027121]	19 µM	7.6	2.7 µM	75.6%	6.5%	98.6%
Cc1cc2c(cc1C)C(=O)[C@]1(O)CCN(c3ccc4ncsc4c3)C1=N2 [BPN-0027122]	45 µM	26.5	5.9 µM	69.5%	5.3%	97.1%
Cn1ncc2c1N=C1N(c3ccccc3)CC[C@@]1(O)C2=O [BPN-0027159]		NMII-sel	330 µM	89.9%	22.5%	>99%
Cc1ccc2c(c1)C(=O)[C@]1(O)CCN(c3ccc4ncc(C)cc4c3)C1=N2 [BPN-0027160]	30 µM	10.3	0.2 µM	95.5%	73.0%	>99%
Cc1cc2cc(N3CC[C@@]4(O)C(=O)c5cc(C)c(C)cc5N=C34)ccc2cn1 [BPN-0027161]	24 µM	21.8	0.24 µM	78.6%	60.2%	98.3%

SMILES	Ki (Bovine cardiac myosin)	Ratio CMMII:NMII Ki/EC50 (Bovine cardiac myosin)	Ki (Rabbit skeletal myosin)	Photostability 4 hours [1]	Photostability 24 hours [1]	Photostability Dark (24 h) [1]
Cc1cc2c(s1)C(=O)[C@]1(O)CCN(c3ccc(C#N)c(Cl)c3)C1=N2 [BPN-0027162]	52 µM	6.6	4.5 µM	98.5%	95.9%	>99%
Cc1ccc2c(c1)C(=O)[C@]1(O)CCN(c3ccc(CO)c(Cl)c3)C1=N2 [BPN-0027163]	21 µM	5.0	5.9 µM	95.0%	44.6%	>99%
Cc1cc2c(s1)C(=O)[C@]1(O)CCN(c3ccc4ncccc4c3)C1=N2 [BPN-0027181]	91 µM	33.7	3.1 µM	>99%	99.0%	>99%
Cc1cc2c(cc1F)C(=O)[C@]1(O)CCN(c3ccc4ncsc4c3)C1=N2 [BPN-0027196]		NMII-sel	12 µM	94.9%	7.1%	>99%
Cc1cc2c(cc1F)C(=O)[C@]1(O)CCN(c3ccc4ncccc4c3)C1=N2 [BPN-0027197]		NMII-sel	2.4 µM	>99%	36.4%	>99%
Cc1nc2cc(N3CC[C@@]4(O)C(=O)c5cc(F)c(C)cc5N=C34)ccc2o1 [BPN-0027198]	10.5 µM	3.6	0.88 µM	89.9%	21.4%	>99%
Cc1nc2ccc(N3CC[C@@]4(O)C(=O)c5cc(C)c(C)cc5N=C34)cc2o1 [BPN-0027213]	33 µM	11.4	0.45 µM	46.3%	1.0%	85.0%
Cc1cc2c(cc1C)C(=O)[C@]1(O)CCN(c3ccc4ncccc4c3)C1=N2 [BPN-0027215]		NMII-sel	1 µM	73.2%	9.2%	97.3%
Cc1cc2c(s1)N=C1N(c3ccc4ncccc4c3)CC[C@@]1(O)C2=O [BPN-0027216]	31 µM	11.5	4.6 µM	97.2%	85.0%	>99%
CCc1cc2c(s1)N=C1N(c3ccc4ncccc4c3)CC[C@@]1(O)C2=O [BPN-0027217]	160 µM	20.5	21 µM	97.9%	76.0%	>99%
O=C1c2cc(C(F)(F)F)ccc2N=C2N(c3ccc4ncccc4c3)CC[C@@]12O [BPN-0027218]		NMII-sel	40 µM	90.0%	4.4%	95.5%
Cc1cc2c(cc1C)C(=O)[C@]1(O)CCN(c3ccc4ncncc4c3)C1=N2 [BPN-0027228]	300 µM	10.7	4.6 µM	>99%	89.1%	>99%
N#Cc1ccc(N2CC[C@@]3(O)C(=O)c4c(sc5c4CCCC5)N=C23)cc1 [BPN-0027236]		NMII-sel	5 µM	>99%	84.9%	>99%
Cc1cc(N2CC[C@@]3(O)C(=O)c4cc(C(F)(F)F)ccc4N=C23)on1 [BPN-0027237]	50 µM	4.5	6.7 µM	79.8%	15.8%	82.7%
Cc1sc2c(c1C)C(=O)[C@]1(O)CCN(c3ccc(C#N)c(Cl)c3)C1=N2 [BPN-0027238]		NMII-sel	3.7 µM	>99%	>99%	>99%
Cc1cc2c(cc1C)C(=O)[C@]1(O)CCN(c3ccc4nnccc4c3)C1=N2 [BPN-0027241]	100 µM	7.7	7.2 µM	91.6%	87.0%	97.4%
